Results as given in patent US11434242B2, “Dopamine-b-hydroxylase inhibitors” (BIAL-PORTELA & Cª, S.A., priority 2017, dated 2022).

Target: T1, Dopamine beta hydroxylase (Homo sapiens, UniProt P09172)
T1 construct: 125 μl of plasma; tissue Instituto Português do Sangue Transplantação; host or cells: human plasma from healthy donors
T1 sequence (P09172 40-617 limits assumed): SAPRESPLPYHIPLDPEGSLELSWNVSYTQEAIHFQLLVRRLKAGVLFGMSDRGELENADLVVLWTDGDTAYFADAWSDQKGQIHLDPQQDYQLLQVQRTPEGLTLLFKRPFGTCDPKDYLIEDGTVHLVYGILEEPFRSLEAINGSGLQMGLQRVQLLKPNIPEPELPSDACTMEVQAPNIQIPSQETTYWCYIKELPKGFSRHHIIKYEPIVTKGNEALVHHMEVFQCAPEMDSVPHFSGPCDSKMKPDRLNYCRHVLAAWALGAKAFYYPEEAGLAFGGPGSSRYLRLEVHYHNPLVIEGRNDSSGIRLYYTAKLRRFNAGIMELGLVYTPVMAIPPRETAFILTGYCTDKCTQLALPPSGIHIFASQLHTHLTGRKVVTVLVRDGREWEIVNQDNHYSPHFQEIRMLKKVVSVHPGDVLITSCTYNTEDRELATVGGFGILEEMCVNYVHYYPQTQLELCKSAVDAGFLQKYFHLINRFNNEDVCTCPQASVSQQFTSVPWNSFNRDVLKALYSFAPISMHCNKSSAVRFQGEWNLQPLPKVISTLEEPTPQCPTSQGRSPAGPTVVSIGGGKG
Assay: Dopamine beta hydroxylase activity in human plasma
Format: biochemical
Settings: for Plasma (0.1 μM), activity in % of control: inhibitor 0.1 μM; for Plasma (1 μM), activity in % of control: inhibitor 1 μM; for Plasma (0.01 μM), activity in % of control: inhibitor 0.01 μM
How it was run: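 Healthy-donor human plasma pre-incubated 10 min at 37° C with compound at final 10, 100 or 1000 nM in pH 5.0 acetate buffer with ascorbate, fumarate, pargyline, N-ethylmaleimide, catalase and copper sulfate. Tyramine substrate then added for 45 min; octopamine formed was isolated by SCX cartridge, periodate-converted and read at 330 nm; activity given as % control.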

| Plasma (0.1 μM), activity in % of control | Plasma (1 μM), activity in % of control | Plasma (0.01 μM), activity in % of control | Structure (SMILES) |
| --- | --- | --- | --- |
| 76.1 % of control | 13.2 % of control |  | CC(C)NC(=O)Cc1[nH]c(=S)n2c1[C@@H]1C[C@]1(c1cc(Cl)ccc1F)C2 [Example 67, 2-((5aS,6aR)-5a-(5-chloro-2-fluorophenyl)-3-thioxo-2,3,5,5a,6,6a-hexahydrocyclopropa[3,4]pyrrolo[1,2-c]imidazol-1-yl)-N-isopropylacetamide] |
| 36.6 % of control |  | 66.5 % of control | CN(C(=O)Cc1c2n(c(=S)n1C)C[C@H](c1c(F)ccc(F)c1F)C2)C1COC1 [Example 435, (S)—N-methyl-2-(2-methyl-3-thioxo-6-(2,3,6-trifluorophenyl)-2,5,6,7-tetrahydro-3H-pyrrolo[1,2-c]imidazol-1-yl)-N-(oxetan-3-yl)acetamide] |
| 48.5 % of control |  | 87.8 % of control | CN(C(=O)Cc1[nH]c(=S)n2c1C[C@H](c1c(F)ccc(F)c1F)C2)C1COC1 [Example 420, (R)—N-methyl-N-(oxetan-3-yl)-2-(3-thioxo-6-(2,3,6-trifluorophenyl)-2,5,6,7-tetrahydro-3H-pyrrolo[1,2-c]imidazol-1-yl)acetamide] |
| 39.2 % of control |  | 76.1 % of control | Cn1c(CC(N)=O)c2n(c1=S)C[C@H](c1c(F)ccc(Br)c1F)C2 [Example 240, (S)-2-(6-(3-bromo-2,6-difluorophenyl)-2-methyl-3-thioxo-2,5,6,7-tetrahydro-3H-pyrrolo[1,2-c]imidazol-1-yl)acetamide] |
| 9.4 % of control |  | 48.2 % of control | Cn1c(CC(=O)NC[C@H]2CCCO2)c2n(c1=S)C[C@H](c1c(F)ccc(Cl)c1F)C2 [Example 337, 2-((S)-6-(3-chloro-2,6-difluorophenyl)-2-methyl-3-thioxo-2,5,6,7-tetrahydro-3H-pyrrolo[1,2-c]imidazol-1-yl)-N—(((R)-tetrahydrofuran-2-yl)methyl)acetamide] |
| 16.5 % of control |  | 67.9 % of control | Cn1c(CCC(=O)N2CC3C(C2)C3(C)C)c2n(c1=S)C[C@@H](c1c(F)c(F)cc(F)c1F)C2 (stereo partly drawn) [Example 319, 1-(6,6-dimethyl-3-azabicyclo[3.1.0]hexan-3-yl)-3-((R)-2-methyl-6-(2,3,5,6-tetrafluorophenyl)-3-thioxo-2,5,6,7-tetrahydro-3H-pyrrolo[1,2-c]imidazol-1-yl)propan-1-one] |
| 8.7 % of control |  | 44.9 % of control | Cl.Cn1c(CC(=O)NCc2cnccn2)c2n(c1=S)C[C@@]1(c3cc(Cl)ccc3F)C[C@@H]21 [Example 335, 2-((5aS,6aR)-5a-(5-chloro-2-fluorophenyl)-2-methyl-3-thioxo-2,3,5,5a,6,6a-hexahydrocyclopropa[3,4]pyrrolo[1,2-c]imidazol-1-yl)-N-(pyrazin-2-ylmethyl)acetamide Hydrochloride] |
| 3.1 % of control |  | 42.4 % of control | Cn1c(CC(=O)NC2COC2)c2n(c1=S)C[C@H](c1c(F)ccc(Br)c1F)C2 [Example 413, (S)-2-(6-(3-bromo-2,6-difluorophenyl)-2-methyl-3-thioxo-2,5,6,7-tetrahydro-3H-pyrrolo[1,2-c]imidazol-1-yl)-N-(oxetan-3-yl)acetamide] |
| 10.3 % of control |  | 50.2 % of control | [2H]C([2H])([2H])n1c(CC(=O)O)c2n(c1=S)C[C@@]1(c3cc(Br)ccc3F)C[C@@H]21 [Example 462, 2-((5aS,6aR)-5a-(5-bromo-2-fluorophenyl)-2-(methyl-d)-3-thioxo-2,3,5,5a,6,6a-hexahydrocyclopropa[3,4]pyrrolo[1,2-c]imidazol-1-yl)acetic Acid] |
| 6.3 % of control |  | 51.9 % of control | CS(=O)(=O)C1CCN(C(=O)Cc2[nH]c(=S)n3c2C[C@@H](c2c(F)ccc(Br)c2F)C3)CC1 [Example 123, (S)-2-(6-(3-bromo-2,6-difluorophenyl)-3-thioxo-2,5,6,7-tetrahydro-3H-pyrrolo[1,2-c]imidazol-1-yl)-1-(4-(methylsulfonyl)piperidin-1-yl)ethan-1-one] |
| 67.9 % of control | 19.5 % of control |  | O=C(Cc1[nH]c(=S)n2c1C[C@H](c1c(F)c(F)cc(F)c1F)C2)N1CCCC1 [Example 104, (R)-1-(pyrrolidin-1-yl)-2-(6-(2,3,5,6-tetrafluorophenyl)-3-thioxo-2,5,6,7-tetrahydro-3H-pyrrolo[1,2-c]imidazol-1-yl)ethan-1-one] |
| 32.3 % of control |  | 68.2 % of control | Cn1c(CC(=O)NCC2CCOCC2)c2n(c1=S)C[C@H](c1cc(F)cc(F)c1)C2 [Example 428, (S)-2-(6-(3,5-difluorophenyl)-2-methyl-3-thioxo-2,5,6,7-tetrahydro-3H-pyrrolo[1,2-c]imidazol-1-yl)-N-((tetrahydro-2H-pyran-4-yl)methyl)acetamide] |
| 12.5 % of control |  | 65.3 % of control | N#C/N=C(/NCc1[nH]c(=S)n2c1C[C@@H](c1c(F)ccc(Br)c1F)C2)N1CCCC1 [Example 225, (S,Z)—N-((6-(3-bromo-2,6-difluorophenyl)-3-thioxo-2,5,6,7-tetrahydro-3H-pyrrolo[1,2-c]imidazol-1-yl)methyl)-N′-cyanopyrrolidine-1-carboximidamide] |
| 6.2 % of control |  | 36.4 % of control | Cn1cc(CNC(=O)Cc2c3n(c(=S)n2C)C[C@H](c2c(F)ccc(Cl)c2F)C3)cn1 [Example 338, (S)-2-(6-(3-chloro-2,6-difluorophenyl)-2-methyl-3-thioxo-2,5,6,7-tetrahydro-3H-pyrrolo[1,2-c]imidazol-1-yl)-N-((1-methyl-1H-pyrazol-4-yl)methyl)acetamide] |
| 79.8 % of control |  | 92.2 % of control | CN(CCO)CCc1[nH]c(=S)n2c1C[C@H](c1c(F)ccc(Br)c1F)C2 [Example 183, (R)-6-(3-bromo-2,6-difluorophenyl)-1-(2-((2-hydroxyethyl)(methyl)amino)ethyl)-2,5,6,7-tetrahydro-3H-pyrrolo[1,2-c]imidazole-3-thione] |
| 12.1 % of control |  | 73.4 % of control | F.Fc1ccc(Br)cc1[C@]12C[C@H]1c1c(CCNc3ccccn3)[nH]c(=S)n1C2 [Example 192, (5aS,6aR)-5a-(5-bromo-2-fluorophenyl)-1-(2-(pyridin-2-ylamino)ethyl)-5,5a,6,6a-tetrahydrocyclopropa[3,4]pyrrolo[1,2-c]imidazole-3(2H)-thione hydrofluoride] |
| 12.2 % of control |  | 61.2 % of control | Cn1c(CC(=O)NCC#N)c2n(c1=S)C[C@@]1(c3cc(Br)ccc3F)C[C@@H]21 [Example 305, 2-((5aS,6aR)-5a-(5-bromo-2-fluorophenyl)-2-methyl-3-thioxo-2,3,5,5a,6,6a-hexahydrocyclopropa[3,4]pyrrolo[1,2-c]imidazol-1-yl)-N-(cyanomethyl)acetamide] |
| 26.2 % of control | 2.1 % of control |  | O=C(Cc1[nH]c(=S)n2c1C[C@@H](c1c(F)ccc(Br)c1F)C2)N1CCC[C@H]1CO [Example 100, 2-((S)-6-(3-bromo-2,6-difluorophenyl)-3-thioxo-2,5,6,7-tetrahydro-3H-pyrrolo[1,2-c]imidazol-1-yl)-1-((S)-2-(hydroxymethyl)pyrrolidin-1-yl)ethan-1-one] |
| 59.5 % of control |  | 94.9 % of control | Cl.Cn1c(CCNCc2ccccn2)c2n(c1=S)C[C@@]1(c3cc(Cl)ccc3F)C[C@@H]21 [Example 343, (5aS,6aR)-5a-(5-chloro-2-fluorophenyl)-2-methyl-1-(2-((pyridin-2-ylmethyl)amino)ethyl)-5,5a,6,6a-tetrahydrocyclopropa[3,4]pyrrolo[1,2-c]imidazole-3(2H)-thione Hydrochloride] |
| 3.8 % of control |  | 37.6 % of control | Cn1c(CC(=O)NCc2cccnc2)c2n(c1=S)C[C@H](c1c(F)ccc(Cl)c1F)C2 [Example 290, (S)-2-(6-(3-chloro-2,6-difluorophenyl)-2-methyl-3-thioxo-2,5,6,7-tetrahydro-3H-pyrrolo[1,2-c]imidazol-1-yl)-N-(pyridin-3-ylmethyl)acetamide] |
